Measurements: US20250368648A1, “MULTI-CYCLIC IRAK AND FLT3 INHIBITING COMPOUNDS AND USES THEREOF” (CHILDREN'S HOSPITAL MEDICAL CENTER, priority 2022, published 2025)
pKd: −log10 of the molar value.

Tests used:
FLT3 D835V = biological target: T1, FLT3 D835V (Homo sapiens, UniProt P36888, D835V); experiment: DiscoverX KINOMEscan competition binding, FLT3 D835V; conditions: no ATP
T1 construct: purchased DiscoverX (KINOMEscan); host or cells: E. coli (T7 phage) or HEK-293
T1 sequence (P36888 27-993 D835V): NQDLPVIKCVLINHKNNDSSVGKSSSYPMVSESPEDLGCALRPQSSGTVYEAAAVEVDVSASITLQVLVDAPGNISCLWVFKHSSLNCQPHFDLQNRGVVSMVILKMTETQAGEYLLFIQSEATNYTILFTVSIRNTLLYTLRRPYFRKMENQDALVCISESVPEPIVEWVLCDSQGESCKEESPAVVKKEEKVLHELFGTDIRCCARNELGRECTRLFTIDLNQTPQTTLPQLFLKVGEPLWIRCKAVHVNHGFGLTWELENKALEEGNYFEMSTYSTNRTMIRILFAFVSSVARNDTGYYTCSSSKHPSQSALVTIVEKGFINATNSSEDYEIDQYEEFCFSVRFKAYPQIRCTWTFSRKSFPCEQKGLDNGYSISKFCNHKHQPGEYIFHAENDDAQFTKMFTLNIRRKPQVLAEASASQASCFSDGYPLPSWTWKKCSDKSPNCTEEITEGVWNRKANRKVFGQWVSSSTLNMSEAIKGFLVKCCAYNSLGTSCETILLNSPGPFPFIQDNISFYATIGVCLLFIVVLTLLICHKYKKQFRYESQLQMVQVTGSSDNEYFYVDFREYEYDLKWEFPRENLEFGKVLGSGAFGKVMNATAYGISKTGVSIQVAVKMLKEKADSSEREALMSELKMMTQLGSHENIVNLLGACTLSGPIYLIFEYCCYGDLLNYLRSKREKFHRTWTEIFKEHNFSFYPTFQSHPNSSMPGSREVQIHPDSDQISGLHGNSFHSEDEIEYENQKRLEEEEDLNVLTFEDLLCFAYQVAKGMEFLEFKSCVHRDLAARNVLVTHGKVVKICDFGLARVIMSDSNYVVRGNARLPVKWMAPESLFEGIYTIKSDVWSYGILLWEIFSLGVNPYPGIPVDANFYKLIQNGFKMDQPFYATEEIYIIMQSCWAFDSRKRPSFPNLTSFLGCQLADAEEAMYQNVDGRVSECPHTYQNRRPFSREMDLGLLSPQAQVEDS
From the text: (§1) Kinase binding data were obtained for various exemplary compounds prepared according to Examples 2-15 using the DiscoverX KINOMEscan® active site-directed competition binding site-directed assay protocol described below. […] As a result, the data report thermodynamic interaction affinities (Kd values), rather than IC50 values that are dependent on ATP concentrations. The assay uses a DNA-tagged version of the protein kinase, and an immobilized ligand bound to a solid support. Compounds that directly or indirectly prevent kinase binding to the immobilized ligand reduce the amount of kinase captured on the solid support, which is detected using an ultra-sensitive qPCR method. Affinity constants reported from the assay have been reported to be independent of the immobilized ligand used that is coupled to the solid support (See supplemental information in Fabian, M. A. et. al., (2005) Nat. […] Wodicka, L. […] Biol. 17, 1241-1249.) Kinase-tagged T7 phage strains were prepared in an E. coli host derived from the BL21 strain. E. coli were grown to log-phase and infected with T7 phage and incubated with shaking at 32° C. until lysis. […] Kds were determined using an 11-point 3-fold compound dilution series with three DMSO control points. […] The kinase concentration in the eluates was measured by qPCR. Binding constants (Kds) were calculated with a standard dose-response curve using the Hill equation. […]

FLT3 ITD, D835V = biological target: T2, FLT3 ITD, D835V (Homo sapiens, UniProt P36888, D835V, form not given); experiment: DiscoverX KINOMEscan competition binding, FLT3 ITD, D835V; conditions: no ATP
T2 construct: fused on or other part: DNA tag for qPCR read-out (T7 phage fusion, or DNA-tagged kinase made in HEK-293 cells)
T2 sequence (P36888 1-993 D835V): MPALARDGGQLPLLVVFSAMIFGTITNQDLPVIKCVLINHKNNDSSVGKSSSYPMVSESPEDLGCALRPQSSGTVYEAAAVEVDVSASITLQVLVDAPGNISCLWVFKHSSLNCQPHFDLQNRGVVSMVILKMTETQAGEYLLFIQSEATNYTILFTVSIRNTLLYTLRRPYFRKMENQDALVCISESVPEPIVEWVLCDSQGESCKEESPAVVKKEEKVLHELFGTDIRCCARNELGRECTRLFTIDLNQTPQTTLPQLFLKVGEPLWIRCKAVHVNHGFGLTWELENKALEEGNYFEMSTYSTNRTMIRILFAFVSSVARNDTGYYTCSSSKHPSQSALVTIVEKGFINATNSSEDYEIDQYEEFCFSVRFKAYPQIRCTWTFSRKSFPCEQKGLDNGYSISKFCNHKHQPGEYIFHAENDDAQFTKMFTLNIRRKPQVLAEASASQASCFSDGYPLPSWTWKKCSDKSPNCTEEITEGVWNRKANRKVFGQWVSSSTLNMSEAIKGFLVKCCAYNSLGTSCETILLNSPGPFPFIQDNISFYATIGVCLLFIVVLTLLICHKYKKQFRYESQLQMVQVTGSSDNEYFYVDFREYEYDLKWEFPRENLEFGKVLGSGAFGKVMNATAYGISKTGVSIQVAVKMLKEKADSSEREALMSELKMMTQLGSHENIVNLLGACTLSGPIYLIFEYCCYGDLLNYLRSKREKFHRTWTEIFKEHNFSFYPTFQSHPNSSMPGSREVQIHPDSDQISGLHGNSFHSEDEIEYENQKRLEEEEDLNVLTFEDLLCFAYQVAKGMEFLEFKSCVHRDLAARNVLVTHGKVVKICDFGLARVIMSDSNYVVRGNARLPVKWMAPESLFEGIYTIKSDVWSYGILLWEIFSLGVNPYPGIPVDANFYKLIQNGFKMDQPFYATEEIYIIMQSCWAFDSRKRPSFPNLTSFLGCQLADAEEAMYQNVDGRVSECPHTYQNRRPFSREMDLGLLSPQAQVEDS
From the text: as §1

`COc1cc2ncc(-c3nc(N[C@H]4CNCC[C@@H]4F)c(F)cc3F)n2nc1C1CCC1` [Compound 15a, 6-(6-cyclobutyl-7-methoxyimidazo[1,2-b]pyridazin-3-yl)-3,5-difluoro-N-((3S,4S)-4-fluoropiperidin-3-yl)pyridin-2-amine] was tested. Which pKd (FLT3 D835V) did it give?
The pKd was greater than 9.77.

What about the pKd (FLT3 ITD, D835V) of the same molecule?
Its pKd is greater than 9.77.
